Literature values in patent publication US20220249374A1, “RADIOTHERAPEUTIC MICROSPHERES” (priority 2019, published 2022).

Test system: HCC
Details: patients with HCC too advanced for resection or localized ablation

CNC(=O)c1cc(Oc2ccc(NC(=O)Nc3ccc(Cl)c(C(F)(F)F)c3)cc2)ccn1 [Nexavar, sorafenib]
prolongation of survival: three
